From patent US20230157283A1, “COMPOSITIONS AND METHODS FOR INHIBITING A FUNGAL PATHOGEN” (Tu Biomics, Inc., priority 2020, published 2023)

Key:
Sclerotium cepivorum = assay: Example 1: in vitro growth on agar plates containing organic acids; assay type: cell-based; set-up: Sclerotium Treated (in vitro growth, mean±SE): unit not given here; conditions: for Sclerotium Treated (in vitro growth, mean±SE): n=4 plates
Protocol: (§1) In FIG. 1, n.s. indicates “not significant”, ppm indicates “parts per million”; L and (S) indicate levorotatory and sinister rotatory, respectively, and asterisks are used to indicate degrees of statistical significance according to standard conventions. 2-fold concentrated compositions of lactate and acetate were diluted 1:1 with a deionized water + agar solution to prepare agar plates
(§2) In a first round of experiments, the effect of acetate, and dextrorotary (d), levorotary (1), and racemic mixtures of enantiomers of lactate alone, or in combination with acetate was evaluated on the growth of Sclerotium cepivorum and Botrytis cinera (Tables 1A and 1B).
(§3) The effects of higher concentrations of acetate and lactate L (S) on growth was evaluated (Tables 2A and 2B).

Botrytis cinerea = assay: as above; assay type: cell-based; set-up: Botrytis Treated (in vitro growth, mean±SE): unit not given here; conditions: for Botrytis Treated (in vitro growth, mean±SE): n=4 plates
Protocol: as §1, §2, §3

[1] = 175 ppm, 7 days after inoculation
[2] = 175 ppm, 7 days, negative = inhibition, n.s./bracketed = not significant
[3] = 350 ppm, 7 days after inoculation
[4] = 350 ppm, 7 days, negative = inhibition, n.s./bracketed = not significant
[5] = first round, concentrations of Tables 1A and 1B
[6] = 175 ppm, 7 days, n.s./bracketed = not significant
[7] = 350 ppm, 7 days, n.s./bracketed = not significant
[8] = 200 ppm, 7 days after inoculation
[9] = 400 ppm, 7 days after inoculation
[10] = 600 ppm, 7 days, second round (higher concentrations)
[11] = 600 ppm, 7 days, second round, n.s./bracketed = not significant
[12] = higher concentrations, Tables 2A and 2B

Compound: CC(O)C(=O)O (racemic) [Lactate DL (RS racemic mix), reference compound]
- Sclerotium Treated (in vitro growth, mean±SE) (Sclerotium cepivorum; [1]): 2.06 ± 1.18
- % Efficacy (percentage of mean growth in control plates) (Sclerotium cepivorum; [2]): -72%
- Sclerotium Treated (in vitro growth, mean±SE) (Sclerotium cepivorum; [3]): 6.71 ± 2.90
- % Efficacy (percentage of mean growth in control plates) (Sclerotium cepivorum; [4]): n.s.
- effect on growth of S. cepivorum (in words) (Sclerotium cepivorum; [5]): inhibited growth
- Botrytis Treated (in vitro growth, mean±SE) (Botrytis cinerea; [1]): 16.81 ± 1.23
- % Efficacy (percentage of mean growth in control plates) (Botrytis cinerea; [6]): n.s.
- Botrytis Treated (in vitro growth, mean±SE) (Botrytis cinerea; [3]): 26.15 ± 3.37
- % Efficacy (percentage of mean growth in control plates) (Botrytis cinerea; [7]): n.s.

Compound: CC(=O)O [Acetate, acetic acid]
- Sclerotium Treated (in vitro growth, mean±SE) (Sclerotium cepivorum; [8]): 3.63 ± 2.30
- % Efficacy (percentage of mean growth in control plates) (Sclerotium cepivorum; 200 ppm, 7 days, negative = inhibition, n.s./bracketed = not significant): n.s. [23] %
- Sclerotium Treated (in vitro growth, mean±SE) (Sclerotium cepivorum; [9]): 2.62 ± 1.85
- % Efficacy (percentage of mean growth in control plates) (Sclerotium cepivorum; 400 ppm, 7 days, negative = inhibition, n.s./bracketed = not significant): n.s. [-39] %
- Sclerotium Treated (in vitro growth, mean±SE) (Sclerotium cepivorum; [10]): 2.41 ± 0.57
- % Efficacy (percentage of mean growth in control plates) (Sclerotium cepivorum; [11]): -86%
- % Efficacy (percentage of mean growth in control plates) (Sclerotium cepivorum; 800 ppm, 7 days, second round): -97%
- Sclerotium Treated (in vitro growth, mean±SE) (Sclerotium cepivorum; 800 ppm, 7 days, second round): 0.51 ± 0.20
- effect on growth of S. cepivorum (in words) (Sclerotium cepivorum; [5]): significantly inhibited growth
- effect on growth of S. cepivorum (in words) (Sclerotium cepivorum; [12]): increased with acetate concentration at all concentrations evaluated
- Botrytis Treated (in vitro growth, mean±SE) (Botrytis cinerea; [8]): 16.19 ± 1.09
- % Efficacy (percentage of mean growth in control plates) (Botrytis cinerea; 200 ppm, 7 days, negative = inhibition): -33%
- Botrytis Treated (in vitro growth, mean±SE) (Botrytis cinerea; [9]): 12.37 ± 0.79
- % Efficacy (percentage of mean growth in control plates) (Botrytis cinerea; 400 ppm, 7 days, negative = inhibition): -49%
- % Efficacy (percentage of mean growth in control plates) (Botrytis cinerea; [11]): n.s.[11] %
- Botrytis Treated (in vitro growth, mean±SE) (Botrytis cinerea; 600 ppm, 7 days, second round): 22.25 ± 4.12
- % Efficacy (percentage of mean growth in control plates) (Botrytis cinerea; 800 ppm, 7 days, second round, n.s./bracketed = not significant): n.s.[13] %
- Botrytis Treated (in vitro growth, mean±SE) (Botrytis cinerea; 800 ppm, 7 days, second round): 22.73 ± 4.69
- Botrytis Treated (in vitro growth, mean±SE) (Botrytis cinerea; 1000 ppm, 7 days, second round): 29.75 ± 3.76
- % Efficacy (percentage of mean growth in control plates) (Botrytis cinerea; 1000 ppm, 7 days, second round, positive = more growth): 48%
- effect on growth of B. cinerea (in words) (Botrytis cinerea; [5]): significantly inhibited growth
- effect on growth of B. cinerea (in words) (Botrytis cinerea; summary of FIG. 1): inhibited growth of B. cinera at lower concentrations, but served as a carbon source at higher concentrations

Compound: C[C@@H](O)C(=O)O [Lactate D (R), D-lactic acid, reference compound]
- Sclerotium Treated (in vitro growth, mean±SE) (Sclerotium cepivorum; [1]): 14.09 ± 5.75
- % Efficacy (percentage of mean growth in control plates) (Sclerotium cepivorum; [2]): n.s.
- Sclerotium Treated (in vitro growth, mean±SE) (Sclerotium cepivorum; [3]): 10.68 ± 3.19
- % Efficacy (percentage of mean growth in control plates) (Sclerotium cepivorum; [4]): n.s.
- effect on growth of S. cepivorum (in words) (Sclerotium cepivorum; [5]): appeared to act as a carbon source
- Botrytis Treated (in vitro growth, mean±SE) (Botrytis cinerea; [1]): 23.42 ± 1.23
- % Efficacy (percentage of mean growth in control plates) (Botrytis cinerea; [6]): 49%
- Botrytis Treated (in vitro growth, mean±SE) (Botrytis cinerea; [3]): 23.82 ± 2.65
- % Efficacy (percentage of mean growth in control plates) (Botrytis cinerea; [7]): [35] %

Compound: C[C@H](O)C(=O)O [Lactate L (S), L-lactic acid]
- Sclerotium Treated (in vitro growth, mean±SE) (Sclerotium cepivorum; [1]): 5.73 ± 1.72
- % Efficacy (percentage of mean growth in control plates) (Sclerotium cepivorum; [2]): [-43] %
- Sclerotium Treated (in vitro growth, mean±SE) (Sclerotium cepivorum; [3]): 5.17 ± 1.85
- % Efficacy (percentage of mean growth in control plates) (Sclerotium cepivorum; [4]): [-46] %
- % Efficacy (percentage of mean growth in control plates) (Sclerotium cepivorum; 450 ppm, 7 days, second round, n.s./bracketed = not significant): n.s.[-7] %
- Sclerotium Treated (in vitro growth, mean±SE) (Sclerotium cepivorum; 450 ppm, 7 days, second round): 16.08 ± 3.55
- Sclerotium Treated (in vitro growth, mean±SE) (Sclerotium cepivorum; [10]): 20.50 ± 4.10
- % Efficacy (percentage of mean growth in control plates) (Sclerotium cepivorum; [11]): n.s.[18] %
- effect on growth of S. cepivorum (in words) (Sclerotium cepivorum; [5]): inhibited growth
- effect on growth of S. cepivorum (in words) (Sclerotium cepivorum; [12]): not effective
- effect on growth of S. cepivorum (in words) (Sclerotium cepivorum; summary of FIG. 1): inhibited growth of S. cepivorum at lower concentrations, but served as a carbon source at higher concentrations
- Botrytis Treated (in vitro growth, mean±SE) (Botrytis cinerea; [1]): 23.59 ± 2.66
- % Efficacy (percentage of mean growth in control plates) (Botrytis cinerea; [6]): [38] %
- Botrytis Treated (in vitro growth, mean±SE) (Botrytis cinerea; [3]): 27.71 ± 4.97
- % Efficacy (percentage of mean growth in control plates) (Botrytis cinerea; [7]): [71] %
